# Reference: article PMC5533769, “A cell-based high-throughput screening assay system for inhibitor compounds of antigen presentation by HLA class II molecule” (Scientific Reports, 2017)
# “Also recorded” adds a separate entry of the source. Like-named read-outs stand apart in the source and are kept apart here.
# Assays:
# DR1 (DRB1*01:01) [1] = molecular target: T1, DR1 (DRB1*01:01) (Homo sapiens, UniProt P01903+P01911, A100R/D57E/F55L/F60I/F76Y/I96L/L162R/M171V/P40L/Q125E/R42F/V115G/Y59C); experiment: 96-well plate peptide binding assay, DR1-expressing 3T3 cells, SA-β-gal/4MUG; settings: for Kd: live DR1-expressing 3T3, 96-well, 4MUG, parental binding subtracted
# T1 construct: The open reading frame for DRA or DRB1 were flanked with Xho 1 and EcoR1 sites; expressed in transfected cells
# DR15 (DRB1*15:01) [2] = molecular target: T2, DR15 (DRB1*15:01) (Homo sapiens, UniProt P01903+P01911); experiment: 96-well plate peptide binding assay, DR15-expressing 3T3 cells, SA-β-gal/4MUG; settings: parental vs. DR15-expressing 3T3 cells; MBP83-99 5 µM
# T2 construct: The open reading frame for DRA or DRB1 were flanked with Xho 1 and EcoR1 sites; expressed in transfected cells
# Protocol: (§1) Figure 3 Detection and screening system of antigen peptide binding to HLA on 3T3 cells in 96 well plate. (A) Scheme of the detection of HLA-bound peptides on cells in 96 well plates. HLA expressing cells are incubated with biotinylated antigen peptides, and bound peptides are probed with SA-β-gal, followed by enzyme reaction with chromogenic (ONPG) or fluorogenic substrate (4MUG). (B) Detection of HLA-bound peptides on 3T3 cells using fluorogenic substrate (4MUG) in 96 well plates. Two 96-well plates of DR15-expressing cells were incubated with MBP83-99 for 6 h, fixed with glutaraldehyde, and subjected to blocking with a blocking solution as detailed in the methods section. Thereafter, biotinylated peptides in one plate were probed with low concentration of SA-β-gal (3,000-fold dilution) and detected by using 4MUG. The other plate was analysed using a chromogenic substrate (ONPG) in Supplementary Fig. 3. (C) Time and concentration dependence of MBP83-99 binding to DR15-expressing 3T3 cells. The assay was conducted as in (B).
# (§2) Unless otherwise described, the assay was conducted as follows. […] The reaction was stopped by addition of 100 µL of 0.5 M Na2CO3, and fluorescence intensity (Ex: 365 nm, Em: 450 nm) was measured by using a plate reader (Spectra Max plus, Molecular Devices, Sunnyvale, CA, USA). Wells devoid of cells and incubation with biotinylated peptide, but otherwise treated by using the same experimental procedure, were set as blank, and the mean fluorescence value for the wells was subtracted. The apparent Kd values for the binding of MBP83-99 and DR1 (DRB1*01:01) or DR15 (DRB1*15:01) was calculated by double reciprocal plot (1/[P-HLA] = Kd/[HLA]total [P] + 1/[HLA]total; where P represents peptide) or Scatchard plot ([P-HLA]/[P] = [HLA]total/Kd − [P-HLA]/Kd) after subtracting values for HLA-independent peptide binding (parental 3T3 cells) from the respective cells in a peptide concentration dependency experiment. […]
# DR15 (DRB1*15:01) [3] = molecular target: T3, DR15 (DRB1*15:01) (Homo sapiens, UniProt P01903+P01911, OTHER:DRA*01:01ANDEACHDRB1VECTORSWEREINTRODUCEDINTOTHECELLSAT1:1RATIO/OTHER:MBP83-99TODR15(DRB1*15:01)); experiment: as above; settings: live DR15-expressing 3T3, 96-well, 4MUG, 8-h incubation, parental binding subtracted
# T3 construct: The open reading frame for DRA or DRB1 were flanked with Xho 1 and EcoR1 sites; expressed in transfected cells
# Protocol: as §1, §2
# [4] = tested on: HLA-DR (DRB1*01:01, DRB1*04:05, DRB1*09:01, DRB1*15:01); experiment: FACS binding of biotinylated peptide to panel of HLA-DR on HEK293T cells; set-up: species or system human; settings: FACS, SA-PE; […]; biotinylated peptide 30 µM, >5 h
# [5] = molecular target: HLA-DR4 (DRA*01:01/DRB1*04:05) (Homo sapiens, UniProt P01903+P01911, A100R/A169T/D86S/F76Y/I96L/K127E/L162R/M171V/N62H/P40V/Q125Y/R42H/S133A/S149N/S66Y/V115G/V209L/W38E); experiment: FACS binding of biotinylated peptide to HLA-DR4 on HEK293T cells
# [6] = tested on: HEK293T cells (non-transfected); assay type: binding; settings: FACS, SA-PE, biotinylated peptide 30 µM, >5 h
# DR4 (DRB1*04:05) = DR4 (DRB1*04:05) (Homo sapiens, UniProt P01903+P01911, A100R/A169T/D86S/F76Y/I96L/K127E/L162R/M171V/N62H/P40V/Q125Y/R42H/S133A/S149N/S66Y/V115G/V209L/W38E); settings: ref [24]; cited from earlier work
# Protocol: To determine the genotype specificity and relative affinity of known epitope peptides, MBP83-99 and BiP336-355 peptide loading assays were performed on cells expressing DRA*01:01 plus various HLA-DRB1 (Supplemental Fig. 1A). […] However, the extent of peptide loading, which is evaluated by the mean fluorescence intensity (MFI), was the highes ...
# [7] = tested on: DRB1 molecules (almost all genotypes); settings: ref [25]; cited from earlier work
# parental 3T3 cells [8] = experiment: 96-well plate peptide binding assay, parental 3T3 cells, SA-β-gal/4MUG; set-up: species or system murine; settings: SA-β-gal 3,000-fold
# [9] = molecular target: T4, HLA-DR1 (DRA*01:01/DRB1*01:01) (Homo sapiens, UniProt P01903+P01911, A100R/D57E/F55L/F60I/F76Y/I96L/L162R/M171V/P40L/Q125E/R42F/V115G/Y59C); experiment: FACS binding of biotinylated peptide to HLA-DR1 on HEK293T cells; settings: SA-PE, biotinylated peptide 30 µM, >5 h, 3 to 6 independent experiments
# [10] = molecular target: T4, HLA-DR1 (DRA*01:01/DRB1*01:01); experiment: FACS binding of biotinylated peptide to HLA-DR1 on stable 3T3 cells; settings: SA-PE, stable 3T3, DRA*01:01 + DRB1*01:01, biotinylated peptide 30 µM overnight
# parental 3T3 cells [11] = experiment: FACS binding of biotinylated peptide to parental 3T3 cells; set-up: species or system murine; settings: SA-PE, parental 3T3, no HLA-DR, biotinylated peptide 30 µM overnight
# [12] = tested on: HLA-DR (DRB1*01:01, DRB1*04:05, DRB1*09:01, DRB1*15:01); experiment: FACS binding of biotinylated peptide to panel of HLA-DR on stable 3T3 cells; set-up: species or system human; settings: Supplemental Fig. 1 vs. Supplemental Fig. 2
# DR1 (DRB1*01:01) [13] = molecular target: T1, DR1 (DRB1*01:01); experiment: 96-well competition assay: inhibition of MBP83-99 loading to DR1-expressing 3T3 cells; assay type: binding; settings: DR1-expressing 3T3; 1 h pre-incubation, then MBP83-99 (5 µM) 6 h; 4MUG
# DR15 (DRB1*15:01) [14] = molecular target: T2, DR15 (DRB1*15:01); experiment: 96-well competition assay: inhibition of MBP83-99 loading to DR15-expressing 3T3 cells; assay type: binding; settings: DR15-expressing 3T3; 1 h pre-incubation, then MBP83-99 6 h; 4MUG
compound,measurement,setting,value
"CC[C@H](C)[C@H](NC(=O)[C@H](CC(N)=O)NC(=O)[C@H](CCCCN)NC(=O)[C@H](Cc1ccccc1)NC(=O)[C@H](Cc1ccccc1)NC(=O)[C@H](Cc1c[nH]cn1)NC(=O)[C@@H](NC(=O)[C@@H](NC(=O)[C@@H]1CCCN1C(=O)[C@H](CC(N)=O)NC(=O)[C@@H](N)CCC(=O)O)C(C)C)C(C)C)C(=O)N[C@H](C(=O)N[C@H](C(=O)N1CCC[C@H]1C(=O)N[C@@H](CCCNC(=N)N)C(=O)N[C@H](C(=O)N1CCC[C@H]1C(=O)O)[C@@H](C)O)[C@@H](C)O)C(C)C [MBP83-99, myelin basic protein (MBP) 83–99]",Kd,"DR1 (DRB1*01:01) [1]; Scatchard plot, R² = 0.8216, read-out: apparent Kd, DR1, Scatchard plot",14 µM
same,Kd,"DR1 (DRB1*01:01) [1]; double reciprocal plot, R² = 0.99, read-out: apparent Kd, DR1, double reciprocal plot",10 µM
same,"HLA-independent binding share of apparent signal, DR1 cells","DR1 (DRB1*01:01) [1]; parental vs. DR1-expressing 3T3 cells, MBP83-99 5 µM",< 30%
same,"HLA-independent binding share of apparent signal, DR15 cells",DR15 (DRB1*15:01) [2],< 10%
same,Kd,"DR15 (DRB1*15:01) [3]; Scatchard plot, R² = 0.8781, read-out: apparent Kd, DR15, Scatchard plot",3 µM
same,Kd,"DR15 (DRB1*15:01) [3]; double reciprocal plot, R² = 0.9378, read-out: apparent Kd, DR15, double reciprocal plot",2 µM
"RSTMKPVQKVLEDSDLKKSD [BiP336-355, immunoglobulin binding protein (BiP) 336–355, biotinylated self-antigen peptide of BiP]",Peptide binding across HLA-DR genotypes,[4],not to other DR-expressing cells
same,"Peptide binding (MFI), HLA-DR4, extended incubation","[5]; HEK293T, DRB1*04:05, incubation extended to 20 h, data not shown",could not observe a further increase
same,"Peptide binding (MFI), HLA-DR4","[5]; SA-PE, HEK293T transiently expressing DRA*01:01 + DRB1*04:05, biotinylated peptide 30 µM, >5 h","could bind to DR4-expressing HEK293T cells, although very slightly"
same,Peptide binding to control cells,[6],No loading of either peptide was observed
same,Presentation by DR4,DR4 (DRB1*04:05),self-antigen presented by DR4 (DRB1*04:05)
"ACPKYVKQNTLKLATG [HA305-320, influenza hemagglutinin (HA) 305–320, biotinylated influenza hemagglutinin peptide]",Peptide binding across HLA-DR genotypes,[4],did increase in any genotypes of DRB1-expressing cells
same,Binding to DRB1 genotypes,[7],bind to almost all genotypes of DRB1 molecules; also recorded: binds to every genotype of HLA-DRs
same,"Peptide loading, parental 3T3, 96-well",parental 3T3 cells [8],a significant amount of HA305-320 binding was observed in the parental cells
same,"Peptide binding (MFI), HLA-DR1",[9],the highest level
same,"Peptide binding, DR1 on 3T3",[10],"increased in cells expressing HLA, especially DR1; also recorded: could be loaded onto HLA to a sufficient level"
same,Peptide binding to parental 3T3 cells (HLA-independent),parental 3T3 cells [11],"significant degree of apparent binding; also recorded: bound to the cell surface independently of HLA, especially avidly in 3T3 cells"
same,"Peptide binding to parental 3T3 cells, 96-well, and after maximum",DR1 (DRB1*01:01) [1],gradually decreased
same,"HLA-independent binding share of entire signal, DR1 cells","DR1 (DRB1*01:01) [1]; […], HA305-320, obtained at 8 h",exceeded 80%
same,"Time to maximum binding, DR1","DR1 (DRB1*01:01) [1]; […], then gradually decreased",8 h
same,Time to almost plateau loading (Discussion),"DR1 (DRB1*01:01) [1]; cell-based 96-well assay, […]",~8 h
same,Binding intensity in 3T3 compared with HEK293T cells,[12],far less than those in HEK293T cells
"LMAKARQKVLMPSTMLP [scCLIP, scramble peptide (scCLIP), scramble version of the CLIP peptide]","Inhibitory effect on MBP83-99 loading, DR1",DR1 (DRB1*01:01) [13],no inhibitory effect
same,"Inhibitory effect on MBP83-99 loading, DR15",DR15 (DRB1*15:01) [14],no inhibitory effect
